Reference: patent publication US20060241178A1, “Compositions and methods for treating lung cancer” (priority 2002, published 2006)
“Also recorded” adds a separate entry of the source. Like-named read-outs stand apart in the source and are kept apart here. Marks after values point to notes of the source that are not given here.

Columns and labels:
[1] = Stability of conjugates in AIN-76A diet (methanol extraction, HPLC); assay type: physicochemical; conditions: stored at 4° C. under nitrogen
Experimental: The ITC conjugates were incorporated (15 μmol/g diet) into AIN-76A diets (5% corn oil) by mixing with dextrose prior to diet preparation. […] After mixing with dextrose, the solvent was removed using a rotary evaporator and further dried using a vacuum pump (2-3 h). Diets were prepared in 1-2 kg batches, and were stored at 4° C. in a container purged with nitrogen. […] Stability was determined by extraction of 0.5 g portions of the diet with 2.5 ml methanol (2×). The methanol extracts were combined and a 1 ml aliquot was filtered using a 0.47 μm syringe filter.

[2] = test system: B(a)P-induced lung adenoma; test: Tumor bioassay: B(a)P-induced lung tumorigenesis, ITC-NAC conjugates in diet during post-initiation phase
Experimental: The ITC conjugates were incorporated (15 μmol/g diet) into AIN-76A diets (5% corn oil) by mixing with dextrose prior to diet preparation. The conjugates, 9.36 g BITC-NAC (15 mmol) or 9.79 g PEITC-NAC (15 mmol), were dissolved in 50 ml ethyl acetate, and then mixed with 200 g dextrose to ensure even coating of dextrose particles. After mixing with dextrose, the solvent was removed using a rotary evaporator and further dried using a vacuum pump (2-3 h). Diets were prepared in 1-2 kg batches, and were stored at 4° C. in a container purged with nitrogen. […] Stability was determined by extraction of 0.5 g portions of the diet with 2.5 ml methanol (2×). The methanol extracts were combined and a 1 ml aliquot was filtered using a 0.47 μm syringe filter. A 10 μl sample was then analyzed on HPLC (Jiao, et al., Chem. Res. Toxicol., 9: 932-938, 1996).
Tumor Bioassay: Female strain A mice (Jackson Laboratories, Bar Harbor, Me.) of four weeks of age were housed under quarantine in polycarbonate cages (5 mice/cage) and provided modified AIN 76A diet (5% corn oil) and acidified drinking water ad libitum. The mice were maintained on a 12 h light: 12 h dark regimen at 22±5° C. and 50±20% relative humidity. After one week, the mice were weighed, and distributed into four groups containing 30 to 35 mice on the basis of body weight. At seven weeks of age, the mice in groups 1-3 were gavaged with a single dose of 20 μmol B(a)P in 0.2 ml cottonseed oil; group 4 received the vehicle only. Two days after dosing with the carcinogen, diets containing BITC-NAC (15 μmol/g, Group 2) and PEITC-NAC (15 μmol/g, Group 3) were provided. Groups 1 (B[a]P control) and 4 (vehicle only) remained on the modified AIN-76A diet with 5% corn oil. Tap water was provided ad libitum during the course of the bioassay. Mice were observed daily; diets were replenished on the fourth day of the week, and completely replaced on the seventh day. Mice were weighed weekly for four weeks, then monthly and at termination. At 84 days after B(a)P dosing, four mice per group were killed (CO2, cervical dislocation) to harvest lung tissues for molecular and immunohistochemical studies and to quantify lung adenomas, if present. At 140 days after B(a)P, the remaining mice in each group were killed. The number of lung tumors was recorded; lobes of lungs were placed in 10% phosphate buffered formalin for histological and immunohistochemical analysis. The remaining lung lobes were snap frozen in liquid nitrogen.
Mean tumor multiplicity and body weights at each time point were compared between groups using Student's T test.

JNK 1 and 2 = test: Western blot of lung total proteins: JNK phosphorylation; assay type: in vivo, A/J mice; conditions: lung tissue 21 days after B(a)P
p53 [3] = test: Western blot of lung proteins: p53 expression and phosphorylation; assay type: in vivo, A/J mice; conditions: lungs at termination of the bioassay
[4] = test system: alveolar epithelium cells of lung; test: In situ end-labeling (ISEL/TUNEL) of apoptosis in lung sections; assay type: in vivo, A/J mice
[5] = test system: NNK/B(a)P-induced lung adenomas and adenocarcinomas; conditions: for mean numbers of lung adenomas compared with carcinogen control mice: at termination; for Adenocarcinoma Incidence (%) / Adenocarcinoma Multiplicity mean ± SD / Adenoma Incidence (%) / Adenoma Multiplicity mean ± SD: preliminary
Experimental: The test compounds were given in the diet on week 21 after beginning of a weekly dose of a mixture of NNK/B(a)P: 3 μmol each (621 μg NNK and 756 μg B(a)P) in 0.1 ml cottonseed oil for eight weeks (a total of 8 doses) (groups 1 to 10); only vehicle (cottonseed oil) for groups 11 to 15. Animals were then given experimental diet for 20 weeks until week 40. Four mice in groups 1, 2, 4, 6, 8, and 10 (see Table 1) were sacrificed on weeks 20, 38, and 40. The bioassay was terminated on week 52. If sufficient numbers of tumors were developed in mice killed on week 40, the bioassay was terminated at week 40. Tumors (adenomas and carcinomas) were quantified by multiplicity and incidence. At sacrifice, livers and lungs were harvested and the tissues rinsed in autoclaved PBS, stored in labeled foil, and snap frozen in liquid nitrogen. These tissues both tumorous and non-tumorous were processed by histology for biomarker studies (TUNEL, PCNA,p53, […] kinases, etc.). Lungs were examined by histology at termination (52 week or 40 week) for adenomas and carcinomas).
In this study, the potential protective effects of ITCs and ITC-NACs against progression of lung adenomas to malignant tumors were investigated. Lung tumors were induced in A/J mice with 3 μmol B(a)P plus 3 μmol NNK (gavage once/wk, 8 wks); mice were maintained on AIN-76A semi-purified diets. […] Diets containing PEITC (phenethyl ITC) or SFN (sulforaphane), each at 3 mmol/kg and 1.5 mmol/kg diet; PEITC-NAC or SFN-NAC at 8 mmol/kg and 4 mmol/kg diet; and NAC at 8 mmol/kg diet were then provided to groups of 28 mice (high dose) or 20 mice (low dose) during weeks 20 to 40 after initiation. Four mice in each high dose treatment group were killed during weeks 28 and 40 to monitor tumor incidence and progression; lung tissues were used for molecular studies. Remaining mice were killed at 40 weeks for histopathological examination. […] To assess molecular events occurring during the treatments, lung RNA of mice treated with B(a)P+NNK/control diet and B(a)P+NNK/PEITC-NAC high dose diet was examined using a Mouse Cancer Pathway Finder Gene Array.

[6] = test system: p53 (−/−) mouse embryo fibroblasts; conditions: cited from earlier work
[7] = test system: aberrant crypt foci in the colon; conditions: oral, after or independent of timing of azoxymethane; cited from earlier work
p53 [8] = conditions: mouse epidermal cell line, with accompanying apoptosis; cited from earlier work
A549 cells = test: Apoptosis in A549 cells treated with TPA, PEITC-NAC or TPA plus PEITC-NAC (photography, DAPI staining); assay type: cell-based, human; conditions: 100 nM TPA
Text: Assay for single cell DNA strand breaks: A549 cells treated with or without TPA, PEITC-NAC or TPA plus PEITC-NAC were collected at the times specified in the text, cytocentrifuged and stained with 4′-6′diamidino-2-phenylindole (DAPI). The photographs were taken using an Olympus AX 70 microscope (Melville, N.Y.) with fluorescence and SPOT RT Slider digital image system (Diagnostic Instruments Inc., Sterling Heights, Mich.). Arrows indicated the typical apoptotic features of DNA strand breakage and nuclear fragmentation.
TPA (100 nM) was added to A549 cells 12 h prior to addition of PEITC-NAC, which was added 24 h before photography of cells, protein isolation, or DAPI staining. […] These cells were treated identically, but were stained with the DNA fluorochrome DAPI.

[9] = test system: AP-1 binding activity in A549 cells; test: EMSA of AP-1 binding activity in A549 cells; assay type: cell-based, human; parameters: AP-1 binding activity: dose or concentration left out as unconfirmed; conditions: for 24 h
Experimental: Cell Lines: The human lung adenocarcinoma cell line A549 was obtained from the American Type Culture Collection (ATCC) (Bethesda, Md.). […] Cells were grown at 37° C. with 5% CO2.
Reagents: The PEITC was obtained from Aldrich (Milwaukee, Wis.) and its N-acetylcysteine conjugate was synthesized in house by the Organic Synthesis Facility using the method described previously (Kassahun et al., Chem Res Toxicol 1997, 10(11):1228-33). Unless specified otherwise, the A549 cells were treated with 10 or 25 μM of PEITC-NAC. TPA (12-O-tetradecanoylphorbol-13-acetate) was purchased from Sigma (St. Louis, Mo.).
Electrophoretic Mobility Shift Assay (EMSA): Double-stranded oligonucleotides containing the consensus-binding site for AP-1 were purchased commercially (Santa Cruz Biotech). The oligos were labeled with γ-^32P-ATP (6000 Ci/mmol, Armeshem Pharmacia Biotech. Inc Piscataway, N.J.) using polynucleotide kinase (Promega, Madison, Wis.) according to standard procedures. The labeled DNA was incubated with 5 μg of total proteins (as specified in the Results section) for 10 min at room temperature, in the presence of 1 μg of poly d(I)-d(C) oligomer (Roche Molecular Biochemicals, Indianapolis, Ind.) and DNA-binding buffer as described previously (Yang et al., Cell Growth Differ 1993, 4(7):595-602). The complexes were then separated on a 7.5% polyacrylamide gel and autoradiographed.
Proteins Isolation: Cells were incubated in a 37° C. with 5% CO2, followed by mock or treatments specified in the results section. Total proteins were then isolated using RIPA buffer. The protease inhibitors aprotinin (1 μg/ml), leupeptin (1 μg/ml), pepstatin (1 μg/ml), phenylmethylsulfonyl fluoride (0.1 mM) and the phosphatase inhibitor Na3VO4 (1 mM), NaF (1 mM) were added to all buffers. The protein concentrations were determined using the Coomassie Plus Protein Assay Reagent (Pierce, Rockford, Ill.), and aliquots of the proteins were stored at −80° C.

[10] = high dose (3 or 8 mmol/kg diet)
[11] = high dose (PEITC, SFN 3 mmol/kg diet; PEITC-NAC, SFN-NAC, NAC 8 mmol/kg diet)
[12] = low dose (1.5 or 4 mmol/kg diet)
[13] = low dose (PEITC, SFN 1.5 mmol/kg diet; PEITC-NAC, SFN-NAC 4 mmol/kg diet)

Compound | mean numbers of lung adenomas compared with carcinogen control mice [5] | Adenocarcinoma Incidence (%) [5, 10] | Adenocarcinoma Multiplicity mean ± SD [5, 10] | Adenoma Incidence (%) [5, 10] | aberrant crypt foci formation [7] | Adenoma Multiplicity mean ± SD [5, 11] | Adenocarcinoma Incidence (%) [5, 12] | Adenocarcinoma Multiplicity mean ± SD [5, 12] | Adenoma Incidence (%) [5, 12] | Adenoma Multiplicity mean ± SD [5, 13] | further results
CC(=O)N[C@@H](CSC(=S)NCc1ccccc1)C(=O)O [BITC-NAC, benzyl isothiocyanate-NAC] | – | – | – | – | – | – | – | – | – | – | stability in diet [1]: stable for at least one month; tumor multiplicity ([2]; 15 μmol/g diet after B(a)P, at termination, B(a)P control 6.1±3.1): 3.7±2.9 tumors/mouse; Tumor Incidence (%), lung adenoma ([2]; 15 μmol/g diet from 2 days after 20 μmol B(a)P, 140 days): 94%; Tumor multiplicity (no. of tumors/mice), lung adenoma ([2]; 15 μmol/g diet from 2 days after 20 μmol B(a)P, 140 days, mean ± SD): 3.72 ± 2.90^b no. of tumors/mice; average body weight at termination ([2]; 15 μmol/g diet, controls 25.8 g and 25.7 g): 22.9 g; tumor reduction ([2]; versus B(a)P control diet group, at termination): 39%; JNK 1 (p46) phosphorylation level (JNK 1 and 2): increase; JNK 2 (p54) phosphorylation (JNK 1 and 2): only slightly induced; phosphorylation of p53 at Ser15 (p53 [3]): moderate increase; increase in apoptosis, non-tumorous lung tissue ([4]; after 140 days): 2.4 fold; apoptotic index, fold elevation ([4]; lung tissue at 84 days, before tumors appeared): approximately 2 fold
CC(=O)N[C@@H](CS)C(=O)O [NAC, N-acetyl-L-cysteine] | decreases were significant | 4/8 (50%) | 1.10 ± 1.51 | 8/8 (100%) | – | – | – | – | – | – | –
S=C=NCCc1ccccc1 [PEITC, phenethyl isothiocyanate] | – | 6/32 (19%)* | – | 31/32 (96.90%) | inhibited foci formation | 8.81 ± 3.96 | 7/20 (35%) | 1.15 ± 1.85 | 19/20 (95%) | 7.25 ± 4.43 | induction of apoptosis [6]: did not induce apoptosis; p53 transactivation (p53 [8]): induces p53 transactivation in a dose- and time-dependent manner; Overall % Survival ([5]; high dose, adjusted for scheduled sacrifices, control 29.8%): 21.10%
C[S+]([O-])CCCCN=C=S (centres unmarked) [SFN, sulforaphane] | – | 10/32 (31.3%) | 0.84 ± 1.48 | 30/32 (93.8%) | inhibited foci formation | 8.84 ± 5.72 | 4/20 (20%) | 0.30 ± 0.64 | 20/20 (100%) | 9.25 ± 4.15 | malignant tumor multiplicity ([5]; low dose groups, initiated control group 2.1): 0.9 tumors/mouse
CC(=O)NC(CSC(=S)NCCCC[S+](C)[O-])C(=O)O (centres unmarked) [SFN-NAC, sulforaphane-NAC] | decreases were significant | 5/31 (16.13%) | 0.42 ± 1.01 | 31/31 (100%) | – | 9.06 ± 5.35 | 2/19 (10.53%) | 0.32 ± 0.92 | 18/19 (94.74%) | 8.53 ± 4.32 | –
CCCCCCCCCCCCCC(=O)O[C@@H]1[C@@H](C)[C@@]2(O)[C@@H](C=C(CO)C[C@]3(O)C(=O)C(C)=C[C@@H]23)[C@@H]2C(C)(C)[C@]12OC(C)=O [TPA, 12-O-tetradecanoylphorbol-13-acetate] | – | – | – | – | – | – | – | – | – | – | cell growth / apoptosis with TPA alone (A549 cells): appear to be growing well; also recorded: did not cause apoptosis in A549 cells; AP-1 binding activity [9]: specifically induced
